Reference: patent US12029734B2, “Compositions and methods for treatment of symptoms in Parkinson's disease patients” (Tyler Medical Research, LLC, priority 2011, dated 2024)
Where two headings read alike, the source gives them in different places.

Key:
[1] = cited from earlier work
[2] = system: patients with idiopathic PD and LIDS; test: Phase II clinical trial of nicotine: safety assessments (AEs, laboratory tests, serum cotinine, ECG, JayMidi, MNWS-R); conditions: human, in vivo
Description: (§1) Safety was assessed by incidences of adverse experiences (AE), clinical laboratory tests, serum cotinine, ECG and vital signs. Impulsive symptoms were assessed using the Jay Modified Minnesota Impulsive Disorders Interview (JayMidi). Withdrawal symptoms were evaluated using the Minnesota Nicotine Withdrawal Scale (MNWS-R).

[3] = system: patients with idiopathic PD and LIDS
Description: A total of 65 patients with idiopathic PD and LIDS were enrolled in a phase II study. Major entry criteria were as follows: 1) Hoehn and Yahr Stage II-IV while in “on” state, 2) had moderately to severely disabling LIDS>25% of waking day as determined by a rating of >2 on each of Questions 32 and 33 of the Unified Parkinson's Disease Rating Scale (UPDRS), 3) be on stable doses of levodopa and other medicines for PD for >30 days, 4) have a negative screening urine test for cotinine, and 5) not be a smoker or previous smoker or regular exposure to second-hand smoke. The study consisted of 3 phases: a treatment period of 10 weeks, a 9-day drug taper period, and a 5-day follow-up period. Subjects were randomly assigned to receive either nicotine or placebo (pbo). Dosing began at 1 mg q6 hr and was escalated at 2-week intervals to 6 mg q6 hr (24 mg/day). All subjects were allowed to take ondansetron as rescue medication for the treatment of nausea and/or vomiting for the first 3 days of each dose escalation. Subjects were maintained on 24 mg/day for 4 weeks.
Efficacy was assessed using the UPDRS (total of Parts II+III+IV), sum of Q32+Q33, Unified Dyskiensia Rating Scale (UDysRS) total scores and subscores, Lang-Fahn Dyskinesia Activities of Daily Living Scale (LF-ADL), physician and patient ratings of improvement from baseline in dyskinesias on 7-point CGI-C and PGI-C scales, and responder analyses (subjects with >25% improvement from baseline) on UDysRS total score and LF-ADL, and % subjects with any improvement on PGI-C and CGI-C.
The safety population for all safety analyses consisted of all subjects who received at least 1 dose of nicotine or placebo.

[4] = system: patients with idiopathic PD and LIDS; remark: listed apart in the source
Description: as §1

## N[C@@H](Cc1ccc(O)c(O)c1)C(=O)O [Levodopa, L-3,4-dihydroxyphenylalanine (S)-2-amino-3-(3,4-dihydroxyphenyl)propanoic acid]
[1]
  solubility in water: slightly soluble in water

## CN1CCC[C@H]1c1cccnc1 [nicotine, 3-[(2S)-1-methylpyrrolidin-2-yl]pyridine]
[2]
  changes in ECG parameters: no clinically relevant changes
  withdrawal symptoms as assessed by MNWS-R, clinical relevance: not a clinically relevant issue
[3]; 10 weeks of treatment
  UPDRS total scores: did not worsen, but improved
[3]; Week 10 (FIG. 3)
  number of UDysRS subscores improved (mean changes from baseline compared to pbo): 9 of 10
[3]; Week 10, change from baseline (FIG. 1)
  UPDRS Part III score, maximum mean improvement: 2.0 points
[3]; Week 10, p=0.04 versus pbo
  LF-ADL responders (>25% improvement from baseline): 56%
[3]; after 10 weeks (FIG. 4)
  CGI-C pattern compared to pbo: similar, but not statistically significant pattern
[3]; after 10 weeks, p=0.004 versus pbo (FIG. 4)
  PGI-C: patients rating themselves as having any degree of improvement: 78%
[3]; compared to pbo
  efficacy on LIDS on the majority of patient- and physician-rated outcome measures: trend or statistically significant improvement
[3]; compared to placebo, every visit during drug treatment
  UPDRS mean change from baseline to Week 10: numerical improvement
[3]; every study visit during the drug-treatment period (FIG. 2)
  UDysRS total score: Mean improvement from baseline and greater separation from pbo
[3]; p=0.02
  PGI-C: distribution of subjects in each category compared to pbo: significant
[3]; versus pbo, p=0.01
  ambulation (UDysRS subscore): Statistically significant improvement
[4]; PD patients with LIDS, oral, escalated from 1 mg q6 hr to 6 mg q6 hr (24 mg/day), 10 weeks
  overall safety and tolerability: generally safe and well-tolerated
[4]; Week 10 (end of drug treatment)
  withdrawal symptoms, MNWS-R score (maximal score 60): 7.5
[4]; all SAEs
  relation of SAEs to study medication: unrelated to study medication
[4]; end of the follow-up period
  withdrawal symptoms, MNWS-R score (maximal score 60): 5.4
[4]; nicotine group
  occurrences of impulsivity disorders (positive score on any JayMidi module): 1 subject
  overall incidence of serious AEs (SAE): 4 subjects
  percentage of subjects reporting treatment-related AEs: 54%
  subjects who used rescue medication (ondansetron): Twenty-nine
  treatment-emergent AE: constipation, subjects: 11%
  treatment-emergent AE: dizziness, subjects: 11%
  treatment-emergent AE: fatigue, subjects: 9%
  treatment-emergent AE: nausea, subjects: 31%
  treatment-emergent AE: nightmares, subjects: 6%
  treatment-emergent AE: non-specific pain, subjects: 9%
  treatment-emergent AE: vomiting, subjects: 6%
[4]; nicotine group, n=35 randomized
  subjects withdrawn due to treatment-related AEs: 6 subjects
[4]; on 4 mg/day
  subjects withdrawn due to treatment-related AEs: 1 subject
[4]; on 8 mg/day
  subjects withdrawn due to treatment-related AEs: 1 subject
[4]; on 16 mg/day
  subjects withdrawn due to treatment-related AEs: 2 subjects
[4]; on 24 mg/day
  subjects withdrawn due to treatment-related AEs: 2 subjects
[4]; patients treated with nicotine, dose escalation
  serum cotinine levels: increased with increasing dose
[4]; transient in duration
  intensity of the majority of adverse events: mild or moderate in intensity
